According to patent US20260109732A1, “LIPID AMINES” (ModernaTX, Inc., priority 2021, published 2026):
Structures can show the parent of a compound that is named as a salt.

Key:
[1] = Diameter and PDI from DLS measurements of mRNA nanoparticles with lipid amines; type: physicochemical
How it was run: (§1)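 Ionizable lipid nanoparticles (IL1:DSPC:cholesterol:PEG-DMG-2K) formed by vortex mixing at pH 4, loaded with luciferase or CFTR mRNA at N:P 4.93, neutralized with TRIS pH 8.12, then modified with lipid amine SA50 at pH 7.5. Particle diameter and PDI read by DLS; mRNA encapsulation by Ribogreen assay.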

[2] = tested on: HeLa cells; test: CFTR Protein Expression Assay in HeLa Cells; type: cell-based, Human; conditions: LNPs encapsulating CFTR mRNA, N=4 wells; 5 h serum-free then 24 h; immunofluorescence vs PBS control
How it was run: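 HeLa cells dosed with CFTR mRNA LNPs (70 mM NaCl final buffer matrix) in serum-free MEM for 5 h, then complete MEM for 24 h. Fixed cells immunostained with anti-CFTR monoclonal and Alexa 488 secondary, imaged confocally; CFTR intensity per cell expressed as fold-change versus PBS buffer control, N=4 wells.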

[3] = Encapsulation of mRNA nanoparticles with lipid amines using Ribogreen assay; type: physicochemical
How it was run: as §1

[4] = tested on: HeLa cells; test: Luciferase Protein Expression Assay in HeLa Cells; type: cell-based, Human; conditions: LNPs encapsulating Luciferase mRNA, 25 ng per well, N=4 wells; 5 h serum-free then 24 h; ONE-Glo
How it was run: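 HeLa cells received LNPs carrying luciferase mRNA (25 ng per well) or PBS in serum-free MEM for 5 h, then complete MEM for a further 24 h. Luciferase then read by ONE-Glo luminescence after lysis and reported as average RLU of 4 replicate wells.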

[5] = CFTR mRNA nanoparticle with lipid amine
[6] = Luciferase mRNA nanoparticle modified with lipid amine

SMILES | Diameter (nm) [1, 5] | PDI [1, 5] | Diameter (nm) [1, 6] | PDI [1, 6] | Average fold-change in CFTR signal intensity per cell compared to buffer control ± standard deviation [2] | % Encapsulation (Ribogreen) [3, 5] | % Encapsulation (Ribogreen) [3, 6] | Average Relative Light Units ± Standard Deviation [4]
CC[C@H](CC[C@@H](C)[C@H]1CC[C@H]2[C@@H]3CC=C4C[C@@H](OC(=O)N(CCCN)CCCCCCCCN)CC[C@]4(C)[C@H]3CC[C@]12C)C(C)C [SA69, (3S,8S,9S,10R,13R,14S,17R)-17-((2R,5R)-5-Ethyl-6-methylheptan-2-yl)-10,13-dimethyl-2,3,4,7,8,9,10,11,12,13,14,15,16,17-tetradecahydro-1H-cyclopenta[a]phenanthren-3-yl (8-aminooctyl)(3-aminopropyl)carbamate dihydrochloride] | 74.0 nm | 0.13 | 71 nm | 0.16 | 5.3 ± 0.5 fold-change | 99.9% | 98.9% | 35256.9 ± 8309.9 Relative Light Units
CC(C)CCC[C@@H](C)[C@H]1CC[C@H]2[C@@H]3CC=C4C[C@@H](OC(=O)N(CCCCCCN)CCCCCCN)CC[C@]4(C)[C@H]3CC[C@]12C [SA81, (3S,8S,9S,10R,13R,14S,17R)-10,13-Dimethyl-17-((R)-6-methylheptan-2-yl)-2,3,4,7,8,9,10,11,12,13,14,15,16,17-tetradecahydro-1H-cyclopenta[a]phenanthren-3-yl bis(6-aminohexyl)carbamate dihydrochloride] | 87.6 nm | 0.18 | 72 nm | 0.12 | 4.4 ± 0.3 fold-change | 99.4% | 99.8% | 19619.8 ± 4362.6 Relative Light Units
CC(C)CCC[C@@H](C)[C@H]1CC[C@H]2[C@@H]3CC=C4C[C@@H](OC(=O)[C@H](CCCN)NCCCCCCN)CC[C@]4(C)[C@H]3CC[C@]12C.Cl.Cl.Cl [SA132, (3S,8S,9S,10R,13R,14S,17R)-10,13-dimethyl-17-((R)-6-methylheptan-2-yl)-2,3,4,7,8,9,10,11,12,13,14,15,16,17-tetradecahydro-1H-cyclopenta[a]phenanthren-3-yl (S)-5-amino-2-((6-aminohexyl)amino)pentanoate trihydrochloride] | 84.2 nm | 0.15 | 81 nm | 0.41 | 1.6 ± 0.1 fold-change | 96.8% | 99.3% | 131.6 ± 15.5 Relative Light Units
CC(C)CCC[C@@H](C)[C@H]1CC[C@H]2[C@@H]3CC=C4C[C@@H](OC(=O)CSSCC(=O)N(CCCN)CCCCNCCCN)CC[C@]4(C)[C@H]3CC[C@]12C [SA98, (3S,8S,9S,10R,13R,14S,17R)-10,13-dimethyl-17-((R)-6-methylheptan-2-yl)-2,3,4,7,8,9,10,11,12,13,14,15,16,17-tetradecahydro-1H-cyclopenta[a]phenanthren-3-yl 2-((2-((3-aminopropyl)(4-((3-aminopropyl)amino)butyl)amino)-2-oxoethyl)disulfaneyl)acetate trihydrochloride] | 82.8 nm | 0.14 | 70 nm | 0.15 | 1.0 ± 0 fold-change | 93% | 97.0% | 80.7 ± 36.7 Relative Light Units
CC(C)CCC[C@@H](C)[C@H]1CC[C@H]2[C@@H]3CC=C4C[C@@H](SSCCC(=O)N(CCC(C)N)CCC(C)N)CC[C@]4(C)[C@H]3CC[C@]12C (stereo partly drawn) [SA173, N,N-bis(3-aminobutyl)-3-(((3S,8S,9S,10R,13R,14S,17R)-10,13-dimethyl-17-((R)-6-methylheptan-2-yl)-2,3,4,7,8,9,10,11,12,13,14,15,16,17-tetradecahydro-1H-cyclopenta[a]phenanthren-3-yl)disulfaneyl)propanamide dihydrochloride] | 71.8 nm | 0.16 | 73 nm | 0.18 | 13.5 ± 0.8 fold-change | 100% | 99.5% | 33596.1 ± 6033 Relative Light Units
CC[C@H](CC[C@@H](C)[C@H]1CC[C@H]2[C@@H]3CC=C4C[C@@H](OC(=O)N(CCCC(C)(C)N)CCC(C)(C)N)CC[C@]4(C)[C@H]3CC[C@]12C)C(C)C [SA149, (3S,8S,9S,10R,13R,14S,17R)-17-((2R,5R)-5-ethyl-6-methylheptan-2-yl)-10,13-dimethyl-2,3,4,7,8,9,10,11,12,13,14,15,16,17-tetradecahydro-1H-cyclopenta[a]phenanthren-3-yl (3-amino-3-methylbutyl)(4-amino-4-methylpentyl)carbamate dihydrochloride] | 72.3 nm | 0.14 | 75 nm | 0.15 | 15.8 ± 1.4 fold-change | 99.9% | 99.5% | 31035.2 ± 6333.7 Relative Light Units
CC(C)CCC[C@@H](C)[C@H]1CC[C@H]2[C@@H]3CC=C4C[C@@H](OC(=O)CCCC(=O)N(CCCCNCCC(C)N)CCC(C)N)CC[C@]4(C)[C@H]3CC[C@]12C.Cl.Cl.Cl (stereo partly drawn) [SA125, (3S,8S,9S,10R,13R,14S,17R)-10,13-dimethyl-17-((R)-6-methylheptan-2-yl)-2,3,4,7,8,9,10,11,12,13,14,15,16,17-tetradecahydro-1H-cyclopenta[a]phenanthren-3-yl 5-((3-aminobutyl)(4-((3-aminobutyl)amino)butyl)amino)-5-oxopentanoate trihydrochloride] | 75.0 nm | 0.15 | 77 nm | 0.19 | 14.2 ± 0.9 fold-change | 99.0% | 99.7% | 15625.8 ± 3399.4 Relative Light Units
CC(C)CCC[C@@H](C)[C@H]1CC[C@H]2[C@@H]3CC=C4C[C@@H](SSCCC(=O)N(CCCCNCCC(C)(C)N)CCC(C)(C)N)CC[C@]4(C)[C@H]3CC[C@]12C.Cl.Cl.Cl [SA138, N-(3-amino-3-methylbutyl)-N-(4-((3-amino-3-methylbutyl)amino)butyl)-3-(((3S,8S,9S,10R,13R,14S,17R)-10,13-dimethyl-17-((R)-6-methylheptan-2-yl)-2,3,4,7,8,9,10,11,12,13,14,15,16,17-tetradecahydro-1H-cyclopenta[a]phenanthren-3-yl)disulfaneyl)propanamide trihydrochloride] | 89.6 nm | 0.12 | 72 nm | 0.19 | 12.1 ± 1.1 fold-change | 96.4% | 99.2% | 22039.8 ± 8550.1 Relative Light Units
CC(C)CCC[C@@H](C)[C@H]1CC[C@H]2[C@@H]3CC=C4C[C@@H](OC(=O)CCCC(=O)N(CCCCCCCC(C)N)CCC(C)N)CC[C@]4(C)[C@H]3CC[C@]12C (stereo partly drawn) [SA142, (3S,8S,9S,10R,13R,14S,17R)-10,13-dimethyl-17-((R)-6-methylheptan-2-yl)-2,3,4,7,8,9,10,11,12,13,14,15,16,17-tetradecahydro-1H-cyclopenta[a]phenanthren-3-yl 5-((3-aminobutyl)(8-aminononyl)amino)-5-oxopentanoate dihydrochloride] | 69.5 nm | 0.14 | 72 nm | 0.19 | 20.0 ± 1.0 fold-change | 99.0% | 99.5% | 44925.4 ± 6006.5 Relative Light Units
